Assay results reported in ChEMBL document CHEMBL1909046, “DrugMatrix in vitro pharmacology data”.
pIC50, pKi: −log10 of the molar value.

Assays:
[1] = DRUGMATRIX: Sodium/nucleoside co-transporter radioligand binding (ligand: nitrobenzylthioinosine); type: cell membranes, Cavia porcellus, Dunkin-Hartley, Cerebral cortex, Membrane; details: Not Active = under 50% inhibition at 10 µM
[2] = target: T1, Alpha-2C adrenergic receptor (Homo sapiens, UniProt P18825); test: DRUGMATRIX: Adrenergic Alpha-2C radioligand binding (ligand: [3H] MK-912); type: cell membranes, Sf9, Membrane; details: for IC50: sf9
T1 sequence (P18825 whole entry): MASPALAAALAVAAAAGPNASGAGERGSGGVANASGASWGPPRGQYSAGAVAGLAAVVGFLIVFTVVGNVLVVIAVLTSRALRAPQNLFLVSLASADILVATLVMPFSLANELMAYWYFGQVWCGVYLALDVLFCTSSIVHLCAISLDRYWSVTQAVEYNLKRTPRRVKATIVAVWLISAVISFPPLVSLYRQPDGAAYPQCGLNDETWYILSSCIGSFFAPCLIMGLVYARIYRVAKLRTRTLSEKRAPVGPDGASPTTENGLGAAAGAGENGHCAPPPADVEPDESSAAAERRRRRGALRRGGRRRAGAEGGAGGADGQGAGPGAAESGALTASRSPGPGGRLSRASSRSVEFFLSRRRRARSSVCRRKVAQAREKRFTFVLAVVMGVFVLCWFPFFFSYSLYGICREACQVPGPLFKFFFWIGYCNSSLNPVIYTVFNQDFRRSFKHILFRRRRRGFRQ

Histamine H2 receptor = Histamine H2 receptor (Homo sapiens, UniProt P25021); type: cell membranes, CHO-K1, Membrane; details: cho-k1; note: in other assays of this panel Not Active means under 50% inhibition at 10 µM
Nitric oxide synthase 1 = Nitric oxide synthase 1 (Rattus norvegicus, UniProt P29476); type: tissue-based, Cerebellum; note: in other assays of this panel Not Active means under 50% inhibition at 10 µM
Adenosine receptor A3 = target: T2, Adenosine receptor A3 (Homo sapiens, UniProt P0DMS8); type: cell membranes, CHO-K1, Membrane; details: for IC50: cho-k1;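 for all read-outs here: radioligand binding assay with AB-MECA serving as the labeled ligand; in other assays of this panel Not Active means under 50% inhibition at 10 µM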
T2 sequence (P0DMS8 whole entry): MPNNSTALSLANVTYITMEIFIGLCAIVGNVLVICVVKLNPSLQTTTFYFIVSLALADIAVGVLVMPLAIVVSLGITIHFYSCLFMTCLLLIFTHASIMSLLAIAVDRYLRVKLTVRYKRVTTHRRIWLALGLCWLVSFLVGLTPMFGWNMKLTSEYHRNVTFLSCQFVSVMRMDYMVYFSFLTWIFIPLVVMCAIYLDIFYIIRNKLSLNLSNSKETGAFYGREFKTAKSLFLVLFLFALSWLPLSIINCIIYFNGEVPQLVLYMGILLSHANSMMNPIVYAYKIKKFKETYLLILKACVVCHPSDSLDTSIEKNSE

Cytochrome P450 2D6 = Cytochrome P450 2D6 (Homo sapiens, UniProt P10635); details: bti-tn-5b1-4; note: in other assays of this panel Not Active means under 50% inhibition at 10 µM
Estrogen receptor beta = Estrogen receptor beta (Homo sapiens, UniProt Q92731); details: sf9; note: in other assays of this panel Not Active means under 50% inhibition at 10 µM
Chain of Estrogen receptor beta (Q92731 whole entry): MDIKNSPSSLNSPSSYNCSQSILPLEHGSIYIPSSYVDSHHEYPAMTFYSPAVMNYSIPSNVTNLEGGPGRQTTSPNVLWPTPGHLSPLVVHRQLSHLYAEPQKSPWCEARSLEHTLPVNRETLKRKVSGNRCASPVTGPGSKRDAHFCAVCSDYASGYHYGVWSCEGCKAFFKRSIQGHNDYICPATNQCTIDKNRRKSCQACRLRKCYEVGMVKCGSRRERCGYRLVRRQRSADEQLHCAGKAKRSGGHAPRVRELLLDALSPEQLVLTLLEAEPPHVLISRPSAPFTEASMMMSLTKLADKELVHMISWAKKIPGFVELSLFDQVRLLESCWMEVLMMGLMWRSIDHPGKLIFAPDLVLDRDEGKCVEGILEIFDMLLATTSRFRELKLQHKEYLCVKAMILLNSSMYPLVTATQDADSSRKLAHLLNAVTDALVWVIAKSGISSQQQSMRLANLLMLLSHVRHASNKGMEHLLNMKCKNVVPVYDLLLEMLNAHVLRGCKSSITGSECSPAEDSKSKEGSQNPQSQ

Chain of Cytochrome P450 2D6 (P10635 whole entry): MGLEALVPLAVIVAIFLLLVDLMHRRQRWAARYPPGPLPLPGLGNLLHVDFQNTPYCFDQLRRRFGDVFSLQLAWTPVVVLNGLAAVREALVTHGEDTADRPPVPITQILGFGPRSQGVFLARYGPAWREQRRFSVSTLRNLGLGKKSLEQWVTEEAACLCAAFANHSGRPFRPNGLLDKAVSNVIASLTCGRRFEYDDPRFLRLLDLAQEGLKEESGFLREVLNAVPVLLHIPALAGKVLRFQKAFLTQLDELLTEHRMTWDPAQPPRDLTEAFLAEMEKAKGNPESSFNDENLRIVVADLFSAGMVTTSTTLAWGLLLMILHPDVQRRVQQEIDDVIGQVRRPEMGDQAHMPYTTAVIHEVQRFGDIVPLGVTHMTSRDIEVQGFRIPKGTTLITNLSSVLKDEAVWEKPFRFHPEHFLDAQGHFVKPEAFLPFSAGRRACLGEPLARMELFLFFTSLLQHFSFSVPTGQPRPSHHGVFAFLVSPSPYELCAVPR
Chain of Nitric oxide synthase 1 (P29476 whole entry): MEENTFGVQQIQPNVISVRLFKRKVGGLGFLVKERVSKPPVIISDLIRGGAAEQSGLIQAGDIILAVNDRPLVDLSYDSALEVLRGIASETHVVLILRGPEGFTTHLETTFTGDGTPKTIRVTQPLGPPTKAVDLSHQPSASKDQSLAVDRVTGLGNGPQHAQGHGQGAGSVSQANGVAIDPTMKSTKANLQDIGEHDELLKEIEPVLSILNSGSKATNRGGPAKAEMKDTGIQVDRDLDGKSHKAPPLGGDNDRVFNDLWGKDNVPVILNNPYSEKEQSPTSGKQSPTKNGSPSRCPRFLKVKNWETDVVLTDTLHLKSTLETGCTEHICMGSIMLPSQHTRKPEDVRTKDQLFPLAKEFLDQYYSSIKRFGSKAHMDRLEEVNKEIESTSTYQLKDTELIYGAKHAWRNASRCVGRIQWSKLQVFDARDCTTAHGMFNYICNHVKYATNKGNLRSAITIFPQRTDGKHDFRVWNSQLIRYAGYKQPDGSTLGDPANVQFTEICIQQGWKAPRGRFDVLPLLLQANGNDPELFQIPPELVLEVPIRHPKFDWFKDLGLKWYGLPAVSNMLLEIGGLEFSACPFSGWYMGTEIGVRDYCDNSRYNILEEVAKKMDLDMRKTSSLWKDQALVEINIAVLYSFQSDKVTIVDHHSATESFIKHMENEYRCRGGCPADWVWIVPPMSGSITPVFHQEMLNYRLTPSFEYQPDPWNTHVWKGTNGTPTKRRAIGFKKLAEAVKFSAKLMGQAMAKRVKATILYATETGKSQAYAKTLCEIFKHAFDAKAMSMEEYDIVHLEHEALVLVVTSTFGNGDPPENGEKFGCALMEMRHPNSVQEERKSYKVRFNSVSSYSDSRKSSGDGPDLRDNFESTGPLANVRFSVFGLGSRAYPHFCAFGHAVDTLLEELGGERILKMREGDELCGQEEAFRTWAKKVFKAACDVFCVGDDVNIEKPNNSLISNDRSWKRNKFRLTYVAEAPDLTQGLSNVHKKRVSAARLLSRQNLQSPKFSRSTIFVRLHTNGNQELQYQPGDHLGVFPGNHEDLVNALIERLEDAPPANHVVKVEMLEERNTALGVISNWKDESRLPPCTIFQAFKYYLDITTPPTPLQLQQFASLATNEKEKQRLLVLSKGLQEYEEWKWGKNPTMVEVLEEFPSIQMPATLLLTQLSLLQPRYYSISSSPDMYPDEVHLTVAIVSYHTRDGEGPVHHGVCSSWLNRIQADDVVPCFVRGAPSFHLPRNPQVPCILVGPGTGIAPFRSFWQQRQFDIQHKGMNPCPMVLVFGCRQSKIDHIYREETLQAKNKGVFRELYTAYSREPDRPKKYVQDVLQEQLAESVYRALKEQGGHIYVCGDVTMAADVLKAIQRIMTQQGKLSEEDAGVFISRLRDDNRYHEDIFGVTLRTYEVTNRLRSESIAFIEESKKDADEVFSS
Chain of Histamine H2 receptor (P25021 whole entry): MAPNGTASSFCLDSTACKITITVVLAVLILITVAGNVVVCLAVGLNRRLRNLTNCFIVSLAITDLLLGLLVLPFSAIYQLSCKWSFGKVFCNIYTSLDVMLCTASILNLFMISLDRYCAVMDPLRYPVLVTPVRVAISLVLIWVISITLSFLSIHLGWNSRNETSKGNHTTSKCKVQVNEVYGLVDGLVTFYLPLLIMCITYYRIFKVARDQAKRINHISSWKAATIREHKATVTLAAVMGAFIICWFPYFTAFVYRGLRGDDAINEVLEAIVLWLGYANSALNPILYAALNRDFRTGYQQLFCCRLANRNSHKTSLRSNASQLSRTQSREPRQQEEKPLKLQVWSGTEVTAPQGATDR

Row | Structure (SMILES) | IC50 [1] | Ki [1] | IC50 [2] | IC50 (Histamine H2 receptor) | IC50 (Nitric oxide synthase 1) | IC50 (Adenosine receptor A3) | IC50 (Cytochrome P450 2D6) | Ki (Cytochrome P450 2D6) | IC50 (Estrogen receptor beta) | pIC50 ([2]; read-out: IC50) | pKi ([2]; read-out: Ki) | pIC50 (Adenosine receptor A3; read-out: IC50) | pKi (Adenosine receptor A3; read-out: Ki)
1 | C[C@H]1C[C@H]2[C@@H]3CCC4=CC(=O)C=C[C@]4(C)[C@@]3(F)[C@@H](O)C[C@]2(C)[C@@]1(O)C(=O)CO [BETAMETHASONE] | Not Active | Not Active | Not Active | Not Active | Not Active | Not Active |  |  |  |  |  |  | 
2 | CC(C)NCC(O)COc1ccc(CC(N)=O)cc1 (configuration not stated) [ATENOLOL] | Not Active | Not Active | Not Active | Not Active | Not Active | Not Active |  |  |  |  |  |  | 
3 | O=C1c2ccccc2C(=O)C1c1ccccc1 [PHENINDIONE] | Not Active | Not Active | Not Active | Not Active | Not Active | Not Active | Not Active | Not Active |  |  |  |  | 
4 | CCCCCCNC(=O)n1cc(F)c(=O)[nH]c1=O [CARMOFUR] | Not Active | Not Active | Not Active | Not Active | Not Active | Not Active |  |  | Not Active |  |  |  | 
5 | O=c1[nH]cnc2c1ncn2[C@H]1CC[C@@H](CO)O1 [DIDANOSINE] | Not Active | Not Active | Not Active | Not Active | Not Active | Not Active | Not Active | Not Active |  |  |  |  | 
6 | CC(=O)Nc1ccc2c(c1)Cc1ccccc1-2 [2-ACETYLAMINOFLUORENE] | Not Active | Not Active | Not Active | Not Active | Not Active | Not Active | Not Active | Not Active | Not Active |  |  |  | 
7 | CC(C)(c1ccc(O)cc1)c1ccc(O)cc1 [BISPHENOL A] | Not Active | Not Active | Not Active | Not Active | Not Active | Not Active | Not Active | Not Active | Not Active |  |  |  | 
8 | CN(Cc1cc(Br)cc(Br)c1N)C1CCCCC1 [BROMHEXINE] | Not Active | Not Active | Not Active | Not Active | Not Active | Not Active |  |  | Not Active |  |  |  | 
9 | Nc1ccc(Cc2ccc(N)cc2)cc1 | Not Active | Not Active | Not Active | Not Active | Not Active | Not Active | Not Active | Not Active |  |  |  |  | 
10 | CCN(CCO)CCCC(C)Nc1ccnc2cc(Cl)ccc12 (configuration not stated) [HYDROXYCHLOROQUINE] | Not Active | Not Active | Not Active | Not Active | Not Active | Not Active |  |  | Not Active |  |  |  | 
11 | COC(=O)Nc1nc2ccc(Sc3ccccc3)cc2[nH]1 [FENBENDAZOLE] | Not Active | Not Active | Not Active | Not Active | Not Active | Not Active | Not Active | Not Active |  |  |  |  | 
12 | CC12CCC(CC1)C(C)(C)O2 [EUCALYPTOL] | Not Active | Not Active | Not Active | Not Active | Not Active | Not Active | Not Active | Not Active |  |  |  |  | 
13 | C=C(Cl)Cl [1,1-DICHLOROETHENE] | Not Active | Not Active | Not Active | Not Active | Not Active | Not Active | Not Active | Not Active |  |  |  |  | 
14 | O=C(O)c1ccccc1 [BENZOIC ACID] | Not Active | Not Active | Not Active | Not Active | Not Active | Not Active | Not Active | Not Active |  |  |  |  | 
15 | c1ccc2sc(SSc3nc4ccccc4s3)nc2c1 [BENZOTHIAZYL DISULFIDE] | Not Active | Not Active |  | Not Active | Not Active |  | Not Active | Not Active |  | 5.78 | 6.62 | 6.46 | 6.71
